Data published in patent publication US11945813B2, “5-substituted 4-amino-1H-benzo[c][1,2,6]thiadiazine 2,2-dioxides and formulations and uses thereof” (Firmenich Incorporated, priority 2018, dated 2024).

Molecular target: T1, T1R2/T1R3 taste receptor (Homo sapiens, UniProt Q8TE23)
T1 sequence (Q8TE23 20-839): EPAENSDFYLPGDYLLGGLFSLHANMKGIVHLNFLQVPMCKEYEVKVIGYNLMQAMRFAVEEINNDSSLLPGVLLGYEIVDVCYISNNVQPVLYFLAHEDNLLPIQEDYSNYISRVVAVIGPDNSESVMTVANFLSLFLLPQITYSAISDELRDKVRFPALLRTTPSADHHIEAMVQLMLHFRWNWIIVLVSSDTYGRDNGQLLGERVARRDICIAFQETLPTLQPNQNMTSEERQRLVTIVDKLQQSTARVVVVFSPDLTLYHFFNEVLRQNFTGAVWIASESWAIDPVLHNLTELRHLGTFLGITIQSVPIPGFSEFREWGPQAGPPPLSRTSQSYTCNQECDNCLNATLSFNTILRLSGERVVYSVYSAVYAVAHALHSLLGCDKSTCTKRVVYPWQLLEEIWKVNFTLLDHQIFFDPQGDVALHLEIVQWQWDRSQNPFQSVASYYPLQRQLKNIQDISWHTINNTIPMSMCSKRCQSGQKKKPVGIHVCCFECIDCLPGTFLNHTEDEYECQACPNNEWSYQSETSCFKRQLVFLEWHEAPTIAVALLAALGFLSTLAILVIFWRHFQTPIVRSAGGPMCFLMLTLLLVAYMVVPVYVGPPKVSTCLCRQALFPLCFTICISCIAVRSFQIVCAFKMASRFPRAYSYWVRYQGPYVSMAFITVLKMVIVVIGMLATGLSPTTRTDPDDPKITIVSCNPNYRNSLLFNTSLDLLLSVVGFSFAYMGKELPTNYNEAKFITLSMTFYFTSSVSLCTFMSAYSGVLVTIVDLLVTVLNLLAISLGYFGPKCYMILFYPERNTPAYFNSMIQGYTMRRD
T1 sequence (Q7RTX0 21-852 partner): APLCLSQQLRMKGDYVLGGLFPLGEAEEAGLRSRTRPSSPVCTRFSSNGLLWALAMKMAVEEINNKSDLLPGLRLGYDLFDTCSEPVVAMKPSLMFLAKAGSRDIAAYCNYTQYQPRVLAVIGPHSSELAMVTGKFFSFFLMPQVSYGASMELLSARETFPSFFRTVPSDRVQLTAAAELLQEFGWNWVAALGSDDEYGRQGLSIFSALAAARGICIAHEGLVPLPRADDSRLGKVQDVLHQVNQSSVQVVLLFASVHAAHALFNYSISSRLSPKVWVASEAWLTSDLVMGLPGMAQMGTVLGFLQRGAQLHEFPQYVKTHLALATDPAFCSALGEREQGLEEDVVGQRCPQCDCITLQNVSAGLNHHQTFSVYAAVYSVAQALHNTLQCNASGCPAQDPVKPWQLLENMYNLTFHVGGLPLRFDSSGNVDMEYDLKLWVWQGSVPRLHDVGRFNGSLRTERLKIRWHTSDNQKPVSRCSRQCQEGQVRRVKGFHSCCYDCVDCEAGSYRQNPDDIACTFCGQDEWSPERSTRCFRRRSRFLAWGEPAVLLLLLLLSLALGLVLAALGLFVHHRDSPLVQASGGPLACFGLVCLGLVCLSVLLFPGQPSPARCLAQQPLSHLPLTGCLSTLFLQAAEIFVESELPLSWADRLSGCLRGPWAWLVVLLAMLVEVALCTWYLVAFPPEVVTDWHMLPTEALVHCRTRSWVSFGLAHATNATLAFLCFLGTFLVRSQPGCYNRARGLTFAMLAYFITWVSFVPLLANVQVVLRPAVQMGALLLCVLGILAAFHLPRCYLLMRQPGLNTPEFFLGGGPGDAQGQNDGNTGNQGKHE
Assay: Receptor-based assay: sweetener EC50 alone and with test compound (enhancement ratio)
Type: cell-based
Details: for Fructose Enhancement EC50 Ratio: sweetener fructose; for Sucrose Enhancement EC50 Ratio: sweetener sucrose; for Sucralose Enhancement EC50 Ratio: sweetener sucralose
Procedure, shortened: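 Sucrose, sucralose or fructose EC50 measured on human T1R2/T1R3, alone and with 3, 10 or 50 μM test compound. Enhancement is the EC50 ratio without/with compound, binned A >20, B 10-20, C >1 to <10.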

SMILES | Fructose Enhancement EC50 Ratio (10 μM test compound) | Sucrose Enhancement EC50 Ratio (3 μM test compound) | Sucrose Enhancement EC50 Ratio (10 μM test compound) | Sucrose Enhancement EC50 Ratio (50 μM test compound) | Fructose Enhancement EC50 Ratio (50 μM test compound) | Sucralose Enhancement EC50 Ratio (10 μM test compound) | Sucralose Enhancement EC50 Ratio (50 μM test compound)
NC1=NS(=O)(=O)Nc2cccc(OC[C@H]3CCCN(c4cc(C(=O)NC5CC5)ccn4)C3)c21 [Compound 607] | C (A “C” value indicates an enhancement ratio greater than 1 and less than 10) | A (An “A” value indicates an enhancement ratio of greater than 20) | B (A “B” value indicates an enhancement ratio from 10 to 20) | C (A “C” value indicates an enhancement ratio greater than 1 and less than 10) | – | – | –
NC1=NS(=O)(=O)Nc2cccc(OC[C@H]3CCCN(c4cc(C(=O)NC5CCCC5)ccn4)C3)c21 [Compound 608] | C (A “C” value indicates an enhancement ratio greater than 1 and less than 10) | C (A “C” value indicates an enhancement ratio greater than 1 and less than 10) | C (A “C” value indicates an enhancement ratio greater than 1 and less than 10) | B (A “B” value indicates an enhancement ratio from 10 to 20) | C (A “C” value indicates an enhancement ratio greater than 1 and less than 10) | A (An “A” value indicates an enhancement ratio of greater than 20) | A (An “A” value indicates an enhancement ratio of greater than 20)
NC1=NS(=O)(=O)Nc2cccc(OC[C@H]3CCCN(c4cc(C(=O)NC5CCCCC5)ccn4)C3)c21 [Compound 609] | C (A “C” value indicates an enhancement ratio greater than 1 and less than 10) | C (A “C” value indicates an enhancement ratio greater than 1 and less than 10) | C (A “C” value indicates an enhancement ratio greater than 1 and less than 10) | C (A “C” value indicates an enhancement ratio greater than 1 and less than 10) | C (A “C” value indicates an enhancement ratio greater than 1 and less than 10) | B (A “B” value indicates an enhancement ratio from 10 to 20) | B (A “B” value indicates an enhancement ratio from 10 to 20)
CN(C)C(=O)c1ccnc(N2CCC[C@H](COc3cccc4c3C(N)=NS(=O)(=O)N4)C2)c1 [Compound 610] | C (A “C” value indicates an enhancement ratio greater than 1 and less than 10) | – | C (A “C” value indicates an enhancement ratio greater than 1 and less than 10) | B (A “B” value indicates an enhancement ratio from 10 to 20) | C (A “C” value indicates an enhancement ratio greater than 1 and less than 10) | A (An “A” value indicates an enhancement ratio of greater than 20) | A (An “A” value indicates an enhancement ratio of greater than 20)
CCN(CC)C(=O)c1ccnc(N2CCC[C@H](COc3cccc4c3C(N)=NS(=O)(=O)N4)C2)c1 [Compound 611] | C (A “C” value indicates an enhancement ratio greater than 1 and less than 10) | C (A “C” value indicates an enhancement ratio greater than 1 and less than 10) | B (A “B” value indicates an enhancement ratio from 10 to 20) | C (A “C” value indicates an enhancement ratio greater than 1 and less than 10) | – | B (A “B” value indicates an enhancement ratio from 10 to 20) | A (An “A” value indicates an enhancement ratio of greater than 20)
NC1=NS(=O)(=O)Nc2cccc(OC[C@H]3CCCN(c4cc(C(=O)N5CCCC5)ccn4)C3)c21 [Compound 612] | C (A “C” value indicates an enhancement ratio greater than 1 and less than 10) | C (A “C” value indicates an enhancement ratio greater than 1 and less than 10) | C (A “C” value indicates an enhancement ratio greater than 1 and less than 10) | C (A “C” value indicates an enhancement ratio greater than 1 and less than 10) | C (A “C” value indicates an enhancement ratio greater than 1 and less than 10) | A (An “A” value indicates an enhancement ratio of greater than 20) | A (An “A” value indicates an enhancement ratio of greater than 20)
NC1=NS(=O)(=O)Nc2cccc(OC[C@H]3CCCN(c4cc(C(=O)N5CCCCC5)ccn4)C3)c21 [Compound 613] | – | – | C (A “C” value indicates an enhancement ratio greater than 1 and less than 10) | C (A “C” value indicates an enhancement ratio greater than 1 and less than 10) | – | A (An “A” value indicates an enhancement ratio of greater than 20) | A (An “A” value indicates an enhancement ratio of greater than 20)
NC1=NS(=O)(=O)Nc2cccc(OC[C@H]3CCCN(c4cc(C(=O)N5CCOCC5)ccn4)C3)c21 [Compound 614] | – | C (A “C” value indicates an enhancement ratio greater than 1 and less than 10) | – | A (An “A” value indicates an enhancement ratio of greater than 20) | C (A “C” value indicates an enhancement ratio greater than 1 and less than 10) | A (An “A” value indicates an enhancement ratio of greater than 20) | A (An “A” value indicates an enhancement ratio of greater than 20)
CN1CCN(C(=O)c2ccnc(N3CCC[C@H](COc4cccc5c4C(N)=NS(=O)(=O)N5)C3)c2)CC1 [Compound 615] | – | C (A “C” value indicates an enhancement ratio greater than 1 and less than 10) | C (A “C” value indicates an enhancement ratio greater than 1 and less than 10) | B (A “B” value indicates an enhancement ratio from 10 to 20) | – | A (An “A” value indicates an enhancement ratio of greater than 20) | A (An “A” value indicates an enhancement ratio of greater than 20)
CC(C)CNC(=O)c1ccnc(N2CCC[C@H](COc3cccc4c3C(N)=NS(=O)(=O)N4)C2)c1 [Compound 616] | – | C (A “C” value indicates an enhancement ratio greater than 1 and less than 10) | C (A “C” value indicates an enhancement ratio greater than 1 and less than 10) | C (A “C” value indicates an enhancement ratio greater than 1 and less than 10) | C (A “C” value indicates an enhancement ratio greater than 1 and less than 10) | A (An “A” value indicates an enhancement ratio of greater than 20) | A (An “A” value indicates an enhancement ratio of greater than 20)
NC1=NS(=O)(=O)Nc2cccc(OC[C@H]3CCCN(c4cc(C(=O)NCC5CC5)ccn4)C3)c21 [Compound 617] | C (A “C” value indicates an enhancement ratio greater than 1 and less than 10) | C (A “C” value indicates an enhancement ratio greater than 1 and less than 10) | C (A “C” value indicates an enhancement ratio greater than 1 and less than 10) | C (A “C” value indicates an enhancement ratio greater than 1 and less than 10) | C (A “C” value indicates an enhancement ratio greater than 1 and less than 10) | A (An “A” value indicates an enhancement ratio of greater than 20) | A (An “A” value indicates an enhancement ratio of greater than 20)
